Marks after values point to notes of the source that are not given here.
Key:
Assay type in all cases: in vivo
[1] = test system: Erysiphe graminis f. sp. tritici; assay: Test A: wheat powdery mildew, preventive spray on wheat seedlings; conditions: 200 ppm, 100 = 100% disease control, 0 = no control relative to controls
How it was run: (§1)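 Spray suspensions: compound in acetone at 3% of final volume, diluted into acetone:water 1:1 containing 250 ppm polyhydric alcohol ester surfactant. Applied to run-off at 40 or 200 ppm; the higher level corresponds to 500 g/ha.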

[2] = test system: Puccinia recondita f. sp. tritici; assay: Test B: wheat leaf rust, preventive spray on wheat seedlings; conditions: 200 ppm, 100 = 100% disease control, 0 = no control relative to controls; for pest or weed control at 200 ppm: Puccinia recondita, 192 h, read-out: Test B disease control rating
How it was run: as §1

Septoria nodorum = assay: Test C: wheat glume blotch, preventive spray on wheat seedlings; conditions: 200 ppm, 100 = 100% disease control, 0 = no control relative to controls; for pest or weed control at 200 ppm: Parastagonospora nodorum, 216 h, read-out: Test C disease control rating
How it was run: as §1

Septoria tritici = assay: Test D: wheat leaf blotch, preventive spray on wheat seedlings; conditions: 200 ppm, 100 = 100% disease control, 0 = no control relative to controls; for pest or weed control at 200 ppm: Zymoseptoria tritici, 504 h, read-out: Test D disease control rating
How it was run: as §1

Fusarium graminearum = assay: whole plant or invertebrate; conditions: for pest or weed control at 200 ppm: Fusarium graminearum, in Triticum aestivum, 192 h, read-out: Test E disease control rating
Botrytis cinerea = assay: Test F: tomato Botrytis, preventive spray on tomato seedlings; conditions: 200 ppm, 100 = 100% disease control, 0 = no control relative to controls; for pest or weed control at 200 ppm: Botrytis cinerea, 120 h, read-out: Test F disease control rating
How it was run: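 Compounds dissolved in acetone (3% of final volume), suspended in 50/50 acetone/water with 250 ppm Trem® 014. Sprayed preventively to run-off on tomato seedlings at 200 ppm (500 g/ha) or 40 ppm.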

Alternaria solani = assay: Test H: tomato early blight, preventive spray on seedlings; conditions: 200 ppm, 100 = 100% disease control, 0 = no control relative to controls; for pest or weed control at 200 ppm: Alternaria solani, 168 h, read-out: Test H disease control rating
Text: General protocol for preparing test suspensions for Tests A-R: The test compounds were first dissolved in acetone in an amount equal to 3% of the final volume and then suspended at the desired concentration (in ppm) in acetone and purified water (50/50 mix) containing 250 ppm of the surfactant Trem® 014 (polyhydric alcohol esters). The resulting test suspensions were then used in tests A-R. In Tests A-M, compounds were sprayed as a 200 ppm test suspension (equivalent to a rate of 500 g/ha) or as a 40 ppm test suspension to the point of runoff on the test plants. In Tests N-R, compounds were sprayed as a 100 g/ha test suspension (equivalent to a rate of 100 ppm) on the test plants at an application volume of 1000 L/ha. The test suspension was sprayed to the point of run-off on wheat seedlings.

[3] = test system: Colletotrichum orbiculare; assay: Test I: cucumber Colletotrichum anthracnose, preventive spray on cucumber seedlings; conditions: 100 = 100% disease control, 0 = no control relative to controls; for pest or weed control at 200 ppm: Colletotrichum orbiculare, 144 h, read-out: Test I disease control rating; for Test I disease control rating: 200 ppm
How it was run: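 Compound was dissolved in acetone (3% of final volume), then suspended in 50/50 acetone/water with 250 ppm Trem 014 surfactant. Cucumber seedlings were sprayed to run-off as a preventive treatment at 200 ppm (equivalent to 500 g/ha) or 40 ppm.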

[4] = 200 ppm, 100 = 100% disease control, 0 = no control relative to controls

Compound	pest or weed control at 200 ppm ([1]; Blumeria graminis, 192 h, read-out: Test A disease control rating)	pest or weed control at 200 ppm [2]	pest or weed control at 200 ppm (Septoria nodorum)	pest or weed control at 200 ppm (Septoria tritici)	pest or weed control at 200 ppm (Fusarium graminearum)	pest or weed control at 200 ppm (Botrytis cinerea)	pest or weed control at 200 ppm (Alternaria solani)	Test A disease control rating [1]	Test B disease control rating [2]	Test C disease control rating (Septoria nodorum)	Test D disease control rating (Septoria tritici)	Test E disease control rating (Fusarium graminearum; 40 ppm (marked *))	Test F disease control rating (Botrytis cinerea)	Test H disease control rating (Alternaria solani)	Test E disease control rating (Fusarium graminearum; [4])	pest or weed control at 200 ppm [3]	Test I disease control rating [3]
COC[C@H](C)Nc1nccc(-c2ncnc(Nc3ccc(C#N)nc3)n2)n1 [Compound 37, 5-[[4-[2-[[(1S)-2-methoxy-1-methylethyl]amino]-4-pyrimidinyl]-1,3,5-triazinyl]amino]-2-pyridinecarbonitrile]	79%	99%	98%	0%	41%	0%	72%										
CC(C)(C)Nc1nccc(-c2ncnc(Nc3cc(F)cc(F)c3)n2)n1 [Compound 33]								0%	87%	99%	22%	83* %	0%	94%			
COC(C)(C)Nc1nccc(-c2ncnc(Nc3cc(F)cc(F)c3)n2)n1 [Compound 32]								0%	99%	100%	39%		94%	99%	38%		
Cc1cc(Cl)ccc1Nc1cc(-c2ccnc(NC3CCOCC3)n2)ccn1 [Compound 103, 4-[2-[(4-chloro-2-methylphenyl)amino]-4-pyridinyl]-N-(tetrahydro-2H-pyran-4-yl)-2-pyrimidinamine]		97%	100%	1%	0%	0%	99%									0%	
Fc1cccc(Nc2ncnc(-c3ccnc(NC4CC4)n3)n2)c1 [Compound 9]									100%	99%	20%		73%	99%	80%		100%
COCC(C)(C)Nc1nccc(-c2ncnc(Nc3cccc(F)c3)n2)n1 [Compound 6]									97%	100%	58%		85%	98%	84%		0%
CC(C)(C)Nc1nccc(-c2ncnc(Nc3cccc(F)c3)n2)n1 [Compound 10]									93%	100%	10%		0%	97%	61%		99%
CC(=O)OCC(C)Nc1nccc(-c2ncnc(Nc3cccc(F)c3)n2)n1 (stereo not shown) [Compound 8]									97%	95%	42%		0%	41%	77%		0%
Cc1ccc(Nc2cc(-c3ccnc(NC4CCOCC4)n3)ccn2)c(Cl)c1 [Compound 102, 4-[2-[(2-chloro-4-methylphenyl)amino]-4-pyridinyl]-N-(tetrahydro-2H-pyran-4-yl)-2-pyrimidinamine]		93%	100%	3%	27%	83%	41%									0%	
CC(CO)Nc1nccc(-c2ncnc(Nc3cccc(F)c3)n2)n1 (stereo not shown) [Compound 7]									99%	100%	87%		0%	0%	0%		96%

— patent US8026359B2, “Fungicidal heterocyclic amines” (E.I. du Pont de Nemours and Company, priority 2007, dated 2011)
